In PubChem BioAssay AID248 (DTP/NCI, 2004):
Values joined by “and” are separate entries in the source; they are usually repeats but may differ in a detail not shown here. Identical values can stand only once. Inconclusive results and toxic doses are left out.

Tested on: L1210 leukemia ip in BDF1 mice, survival T/C
Assay: NCI In Vivo Anticancer Drug Screen. Data for tumor model L1210 Leukemia (intraperitoneal) in B6D2F1 (BDF1) mice
Details: endpoint: mean survival time, higher = longer survival
Method in brief: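 In this screen, tumor-bearing mice given compound are compared to those given vehicle, and their survival values are reported as a treated-to-control quotient.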

[1] = dose: 25.0 mg/kg/injection, schedule: Q01DX009 (ip), vehicle: carboxymethylcellulose (CMC)
[2] = dose: 100.0 mg/kg/injection, schedule: Q01DX001 (ip), vehicle: carboxymethylcellulose (CMC)
[3] = dose: 200.0 mg/kg/injection, schedule: Q01DX001 (ip), vehicle: carboxymethylcellulose (CMC)
[4] = dose: 100.0 mg/kg/injection, schedule: Q01DX001 (ip), vehicle: saline with Tween-80
[5] = dose: 200.0 mg/kg/injection, schedule: Q01DX001 (ip), vehicle: saline with Tween-80
[6] = dose: 400.0 mg/kg/injection, schedule: Q01DX001 (ip), vehicle: saline with Tween-80

## Cc1ccc(S(=O)(=O)F)cc1N
[1]
  T/C: 95 % of control and 100 % of control
dose: 25.0 mg/kg/injection, schedule: Q04DX002 (ip), vehicle: carboxymethylcellulose (CMC)
  T/C: 100 % of control and 106 % of control
dose: 50.0 mg/kg/injection, schedule: Q01DX001 (ip), vehicle: carboxymethylcellulose (CMC)
  T/C: 104 % of control and 87 % of control
dose: 50.0 mg/kg/injection, schedule: Q01DX009 (ip), vehicle: carboxymethylcellulose (CMC)
  T/C: 103 % of control and 88 % of control
dose: 50.0 mg/kg/injection, schedule: Q04DX002 (ip), vehicle: carboxymethylcellulose (CMC)
  T/C: 93 % of control and 100 % of control
dose: 50.0 mg/kg/injection, schedule: Q04DX003 (ip), vehicle: carboxymethylcellulose (CMC)
  T/C: 98 % of control and 90 % of control
[2]
  T/C: 101 % of control and 104 % of control
dose: 100.0 mg/kg/injection, schedule: Q04DX002 (ip), vehicle: carboxymethylcellulose (CMC)
  T/C: 107 % of control and 90 % of control
dose: 100.0 mg/kg/injection, schedule: Q04DX003 (ip), vehicle: carboxymethylcellulose (CMC)
  T/C: 94 % of control and 87 % of control
[3]
  T/C: 106 % of control and 111 % of control
dose: 200.0 mg/kg/injection, schedule: Q04DX003 (ip), vehicle: carboxymethylcellulose (CMC)
  T/C: 96 % of control and 87 % of control

## CCCC1CCC(=C2C(=O)CCC2=O)O1 (centres undefined)
dose: 3.13 mg/kg/injection, schedule: Q01DX009 (ip), vehicle: saline
  T/C: 95 % of control
dose: 6.25 mg/kg/injection, schedule: Q01DX009 (ip), vehicle: saline
  T/C: 98 % of control
dose: 12.5 mg/kg/injection, schedule: Q01DX009 (ip), vehicle: saline
  T/C: 106 % of control
dose: 25.0 mg/kg/injection, schedule: Q01DX009 (ip), vehicle: saline
  T/C: 104 % of control

## Cc1ccc(C(C#N)c2ccc(N)cc2)cc1 (centres undefined)
dose: 50.0 mg/kg/injection, schedule: Q01DX001 (ip), vehicle: saline
  T/C: 98 % of control
dose: 100.0 mg/kg/injection, schedule: Q01DX001 (ip), vehicle: saline
  T/C: 101 % of control
dose: 200.0 mg/kg/injection, schedule: Q01DX001 (ip), vehicle: saline
  T/C: 101 % of control

## CC(C)(C)c1cc(C#N)cc(C(C)(C)C)c1O
dose: 50.0 mg/kg/injection, schedule: Q01DX009 (ip), vehicle: Klucel (hydroxypropylcellulose) (HPC)
  T/C: 96 % of control
dose: 100.0 mg/kg/injection, schedule: Q01DX009 (ip), vehicle: Klucel (hydroxypropylcellulose) (HPC)
  T/C: 103 % of control
dose: 200.0 mg/kg/injection, schedule: Q01DX009 (ip), vehicle: Klucel (hydroxypropylcellulose) (HPC)
  T/C: 96 % of control

## NC(N)=N/C(N)=N\c1nn[nH]n1
dose: 100.0 mg/kg/injection, schedule: Q01DX001 (ip), vehicle: saline sonified
  T/C: 96 % of control
dose: 100.0 mg/kg/injection, schedule: Q01DX009 (ip), vehicle: saline sonified
  T/C: 91 % of control
dose: 200.0 mg/kg/injection, schedule: Q01DX001 (ip), vehicle: saline sonified
  T/C: 100 % of control
dose: 400.0 mg/kg/injection, schedule: Q01DX001 (ip), vehicle: saline sonified
  T/C: 93 % of control
dose: 400.0 mg/kg/injection, schedule: Q01DX009 (ip), vehicle: saline sonified
  T/C: 92 % of control

## CC(C)(C)C12N=NCC1C(=O)C1(C(C)(C)C)OC1C2=O (centres undefined)
[4]
  T/C: 102 % of control
[5]
  T/C: 97 % of control
[6]
  T/C: 94 % of control

## O=C(O)CSC(=S)N1CCOCC1
[4]
  T/C: 91 % of control
[5]
  T/C: 88 % of control
[6]
  T/C: 94 % of control

## Cc1ccc(C(=O)C=Nc2ccc(O)cc2)cc1
dose: 12.5 mg/kg/injection, schedule: Q04DX002 (ip), vehicle: Klucel (hydroxypropylcellulose) (HPC)
  T/C: 94 % of control
dose: 25.0 mg/kg/injection, schedule: Q04DX002 (ip), vehicle: Klucel (hydroxypropylcellulose) (HPC)
  T/C: 97 % of control
dose: 50.0 mg/kg/injection, schedule: Q04DX002 (ip), vehicle: Klucel (hydroxypropylcellulose) (HPC)
  T/C: 102 % of control

## O=C(O)c1cc([N+](=O)[O-])ccc1Nc1ccccc1
dose: 200.0 mg/kg/injection, schedule: Q04DX003 (ip), vehicle: saline with Tween-80
  T/C: 95 % of control

## Cc1cc(N(CCCl)CCCl)ccc1/C=N\Nc1nncn1N
[1]
  T/C: 122 % of control
[2]
  T/C: 100 % of control
dose: 100.0 mg/kg/injection, schedule: Q01DX009 (ip), vehicle: carboxymethylcellulose (CMC)
  T/C: 154 % of control
[3]
  T/C: 100 % of control
dose: 400.0 mg/kg/injection, schedule: Q01DX001 (ip), vehicle: carboxymethylcellulose (CMC)
  T/C: 102 % of control

## Cc1ccc(S(=O)(=O)O/N=C/C23c4ccccc4C4C(c5ccccc52)C43)cc1 (centres undefined)
dose: 25.0 mg/kg/injection, schedule: Q04DX002 (ip), vehicle: saline with Tween-80
  T/C: 100 % of control
dose: 150.0 mg/kg/injection, schedule: Q04DX002 (ip), vehicle: saline with Tween-80
  T/C: 93 % of control
dose: 300.0 mg/kg/injection, schedule: Q04DX002 (ip), vehicle: saline with Tween-80
  T/C: 93 % of control
